Measured values reported in PubChem BioAssay AID330 (DTP/NCI, 2004).
“And” between values parts separate entries of the source, which are not always exact repeats. Equal entries are not always repeated. Inconclusive results and toxic doses are left out.

Test system: P388 leukemia ip, CD2F1 mice, survival T/C
Experiment: NCI In Vivo Anticancer Drug Screen. Data for tumor model P388 Leukemia (intraperitoneal) in CD2F1 (CDF1) mice
Conditions: endpoint: median survival time, higher = longer survival
In short: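 Mice carrying the transplanted tumor received test compound or vehicle. Survival was recorded in each group, and the value is the treated-group measurement divided by that of the vehicle-treated control group.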

[1] = dose: 6.25 mg/kg/injection, schedule: Q01DX009 (ip), vehicle: saline with Tween-80
[2] = dose: 12.5 mg/kg/injection, schedule: Q01DX009 (ip), vehicle: saline with Tween-80
[3] = dose: 37.5 mg/kg/injection, schedule: Q01DX009 (ip), vehicle: saline with Tween-80
[4] = dose: 50.0 mg/kg/injection, schedule: Q01DX005 (ip), vehicle: Klucel (hydroxypropylcellulose) (HPC)
[5] = dose: 100.0 mg/kg/injection, schedule: Q01DX005 (ip), vehicle: Klucel (hydroxypropylcellulose) (HPC)
[6] = dose: 200.0 mg/kg/injection, schedule: Q01DX005 (ip), vehicle: Klucel (hydroxypropylcellulose) (HPC)
[7] = dose: 50.0 mg/kg/injection, schedule: Q01DX009 (ip), vehicle: Klucel (hydroxypropylcellulose) (HPC)
[8] = dose: 100.0 mg/kg/injection, schedule: Q01DX009 (ip), vehicle: Klucel (hydroxypropylcellulose) (HPC)
[9] = dose: 200.0 mg/kg/injection, schedule: Q01DX009 (ip), vehicle: Klucel (hydroxypropylcellulose) (HPC)
[10] = dose: 60.0 mg/kg/injection, schedule: Q01DX005 (ip), vehicle: saline with Tween-80
[11] = dose: 120.0 mg/kg/injection, schedule: Q01DX005 (ip), vehicle: saline with Tween-80
[12] = dose: 240.0 mg/kg/injection, schedule: Q01DX005 (ip), vehicle: saline with Tween-80
[13] = dose: 6.25 mg/kg/injection, schedule: Q01DX009 (ip), vehicle: saline
[14] = dose: 12.5 mg/kg/injection, schedule: Q01DX009 (ip), vehicle: saline
[15] = dose: 25.0 mg/kg/injection, schedule: Q01DX009 (ip), vehicle: saline
[16] = dose: 100.0 mg/kg/injection, schedule: Q04DX002 (ip), vehicle: Klucel (hydroxypropylcellulose) (HPC)
[17] = dose: 200.0 mg/kg/injection, schedule: Q04DX002 (ip), vehicle: Klucel (hydroxypropylcellulose) (HPC)
[18] = dose: 400.0 mg/kg/injection, schedule: Q04DX002 (ip), vehicle: Klucel (hydroxypropylcellulose) (HPC)
[19] = dose: 25.0 mg/kg/injection, schedule: Q01DX009 (ip), vehicle: saline with Tween-80
[20] = dose: 50.0 mg/kg/injection, schedule: Q04DX003 (ip), vehicle: saline with Tween-80
[21] = dose: 50.0 mg/kg/injection, schedule: Q01DX009 (ip), vehicle: saline with Tween-80

## NNc1ncnc2c1ccn2C1OC(CO)C(O)C1O (stereo not drawn)
[1]
  T/C: 108 % of control
[2]
  T/C: 113 % of control
[3]
  T/C: 118 % of control

## CS(=O)CCCC#N (stereo not drawn)
dose: 18.75 mg/kg/injection, schedule: Q01DX009 (ip), vehicle: saline with Tween-80
  T/C: 115 % of control
[3]
  T/C: 100 % of control
dose: 75.0 mg/kg/injection, schedule: Q01DX009 (ip), vehicle: saline with Tween-80
  T/C: 110 % of control
dose: 150.0 mg/kg/injection, schedule: Q01DX009 (ip), vehicle: saline with Tween-80
  T/C: 100 % of control
dose: 300.0 mg/kg/injection, schedule: Q01DX009 (ip), vehicle: saline with Tween-80
  T/C: 105 % of control

## BrCC[Se](Br)(Br)c1ccccc1
dose: 1.56 mg/kg/injection, schedule: Q01DX009 (ip), vehicle: Klucel (hydroxypropylcellulose) (HPC)
  T/C: 101 % of control
dose: 3.12 mg/kg/injection, schedule: Q01DX009 (ip), vehicle: Klucel (hydroxypropylcellulose) (HPC)
  T/C: 101 % of control
dose: 6.25 mg/kg/injection, schedule: Q01DX009 (ip), vehicle: Klucel (hydroxypropylcellulose) (HPC)
  T/C: 99 % of control and 93 % of control

## C=C(C)C(=NC(C)C)Nc1ccccc1Cl
[4]
  T/C: 92 % of control and 108 % of control
[5]
  T/C: 92 % of control and 107 % of control
[6]
  T/C: 98 % of control

## CCOCC(=O)N[C@H]1CCc2cc(OC)c(OC)c(OC)c2-c2ccc(SC)c(=O)cc21
dose: 0.75 mg/kg/injection, schedule: Q01DX009 (ip), vehicle: Klucel (hydroxypropylcellulose) (HPC)
  T/C: 158 % of control and 161 % of control
dose: 1.5 mg/kg/injection, schedule: Q01DX009 (ip), vehicle: Klucel (hydroxypropylcellulose) (HPC)
  T/C: 193 % of control and 229 % of control

## CCOC(=O)c1c(C)n(O)c2ccc(Cl)cc2c1=O
[7]
  T/C: 100 % of control
[8]
  T/C: 102 % of control
[9]
  T/C: 104 % of control

## CCOC(=O)c1ccc(NC(=O)SC2=NCCS2)cc1
[7]
  T/C: 101 % of control
[8]
  T/C: 103 % of control

## Nc1ncnc(N)c1NC(=O)c1cc(Cl)c(OCc2ccccc2)c(Cl)c1
[10]
  T/C: 101 % of control
[11]
  T/C: 95 % of control
[12]
  T/C: 94 % of control

## O=C1C(CCl)=CS(=O)(=O)c2ccccc21
[13]
  T/C: 109 % of control
[14]
  T/C: 116 % of control
[15]
  T/C: 100 % of control

## C=CC12CC(=O)N3CCc4ccccc4C3(C1)C2
[16]
  T/C: 110 % of control
[17]
  T/C: 100 % of control
[18]
  T/C: 97 % of control

## CC(=O)c1cccc(OCC(O)CN2CCN(c3ccc(C)cc3)CC2)c1 (stereo not drawn)
dose: 100.0 mg/kg/injection, schedule: Q04DX003 (ip), vehicle: Klucel (hydroxypropylcellulose) (HPC)
  T/C: 107 % of control
dose: 400.0 mg/kg/injection, schedule: Q04DX003 (ip), vehicle: Klucel (hydroxypropylcellulose) (HPC)
  T/C: 91 % of control

## Cc1ccc(NC(O)(C(F)(F)F)C(F)(F)F)cc1
[16]
  T/C: 100 % of control
[17]
  T/C: 97 % of control
[18]
  T/C: 96 % of control

## NC(Cc1ccc(O)cc1)C(=O)N/N=C/c1ccccc1O (stereo not drawn)
dose: 50.0 mg/kg/injection, schedule: Q01DX005 (ip), vehicle: saline with Tween-80
  T/C: 92 % of control
dose: 100.0 mg/kg/injection, schedule: Q01DX005 (ip), vehicle: saline with Tween-80
  T/C: 90 % of control
dose: 200.0 mg/kg/injection, schedule: Q01DX005 (ip), vehicle: saline with Tween-80
  T/C: 113 % of control

## CC(C)CC(C(=O)O)N(C)C(=O)OC(C)(C)C (stereo not drawn)
[4]
  T/C: 101 % of control
[5]
  T/C: 93 % of control
[6]
  T/C: 99 % of control

## O=C(Nc1cccc(C(F)(F)F)c1)Oc1ccc(Cl)c2cccnc12
[10]
  T/C: 99 % of control
[11]
  T/C: 98 % of control
[12]
  T/C: 105 % of control

## COc1cc(/C=N/OC(=O)Nc2ccccc2)cc(OC)c1OC
[1]
  T/C: 96 % of control
[2]
  T/C: 91 % of control
[19]
  T/C: 91 % of control

## COc1cc2c(cc1OC)CN1CCCC1C2 (stereo not drawn)
dose: 6.25 mg/kg/injection, schedule: Q01DX005 (ip), vehicle: saline with Tween-80
  T/C: 97 % of control
dose: 12.5 mg/kg/injection, schedule: Q01DX005 (ip), vehicle: saline with Tween-80
  T/C: 108 % of control
dose: 25.0 mg/kg/injection, schedule: Q01DX005 (ip), vehicle: saline with Tween-80
  T/C: 101 % of control

## CC[n+]1ccc(/C=C\c2c(Cl)cccc2Cl)cc1
[13]
  T/C: 96 % of control
[14]
  T/C: 104 % of control
[15]
  T/C: 106 % of control

## CC(C=O)CC1CCCCC1 (stereo not drawn)
[20]
  T/C: 100 % of control
dose: 100.0 mg/kg/injection, schedule: Q04DX003 (ip), vehicle: saline with Tween-80
  T/C: 100 % of control
dose: 200.0 mg/kg/injection, schedule: Q04DX003 (ip), vehicle: saline with Tween-80
  T/C: 109 % of control

## O=S(=O)(Nc1cccc(F)c1)c1ccc(F)cc1
[10]
  T/C: 103 % of control
[11]
  T/C: 99 % of control
[12]
  T/C: 93 % of control

## CC(=O)C(Cc1ccccc1)NC(=O)C(F)(F)F (stereo not drawn)
[21]
  T/C: 93 % of control
dose: 100.0 mg/kg/injection, schedule: Q01DX009 (ip), vehicle: saline with Tween-80
  T/C: 90 % of control
dose: 200.0 mg/kg/injection, schedule: Q01DX009 (ip), vehicle: saline with Tween-80
  T/C: 98 % of control

## O=C(CCSc1ncnc2nc[nH]c12)c1ccccc1
dose: 50.0 mg/kg/injection, schedule: Q01DX009 (ip), vehicle: saline
  T/C: 94 % of control
dose: 100.0 mg/kg/injection, schedule: Q01DX009 (ip), vehicle: saline
  T/C: 92 % of control
dose: 200.0 mg/kg/injection, schedule: Q01DX009 (ip), vehicle: saline
  T/C: 86 % of control

## CCCCn1cnc2c(SC)ncnc21
dose: 22.0 mg/kg/injection, schedule: Q04DX003 (ip), vehicle: saline with Tween-80
  T/C: 110 % of control
dose: 33.0 mg/kg/injection, schedule: Q04DX003 (ip), vehicle: saline with Tween-80
  T/C: 110 % of control
[20]
  T/C: 115 % of control
dose: 75.0 mg/kg/injection, schedule: Q04DX003 (ip), vehicle: saline with Tween-80
  T/C: 110 % of control

## NC(N)=NC(N)=Nc1c(F)c(F)c(F)c(F)c1F
[1]
  T/C: 107 % of control
[2]
  T/C: 100 % of control
[19]
  T/C: 101 % of control and 113 % of control
[21]
  T/C: 116 % of control

## CN(C/C(=N/O)c1ccccc1)C(=O)c1ccccc1
dose: 50.0 mg/kg/injection, schedule: Q01DX005 (ip), vehicle: saline
  T/C: 98 % of control
dose: 100.0 mg/kg/injection, schedule: Q01DX005 (ip), vehicle: saline
  T/C: 100 % of control
dose: 200.0 mg/kg/injection, schedule: Q01DX005 (ip), vehicle: saline
  T/C: 97 % of control

## CCN(CC)CCOc1ccc(C(=O)CC(=O)c2c(-c3ccccc3)n(C)c3ccccc23)cc1
dose: 50.0 mg/kg/injection, schedule: Q01DX001 (ip), vehicle: saline
  T/C: 101 % of control
dose: 100.0 mg/kg/injection, schedule: Q01DX001 (ip), vehicle: saline
  T/C: 94 % of control
dose: 200.0 mg/kg/injection, schedule: Q01DX001 (ip), vehicle: saline
  T/C: 91 % of control

## CC(=O)CC(=O)C(F)(F)F.CC(=O)CC(=O)C(F)(F)F.CC(=O)CC(=O)C(F)(F)F.[Sm]
[7]
  T/C: 96 % of control
[8]
  T/C: 94 % of control
[9]
  T/C: 93 % of control
dose: 400.0 mg/kg/injection, schedule: Q01DX009 (ip), vehicle: Klucel (hydroxypropylcellulose) (HPC)
  T/C: 94 % of control

## Oc1cc(O)cc(/C=C/c2ccc(O)cc2O)c1
dose: 2.0 mg/kg/injection, schedule: Q01DX009 (ip), vehicle: Klucel (hydroxypropylcellulose) (HPC)
  T/C: 102 % of control
dose: 4.0 mg/kg/injection, schedule: Q01DX009 (ip), vehicle: Klucel (hydroxypropylcellulose) (HPC)
  T/C: 105 % of control
dose: 8.0 mg/kg/injection, schedule: Q01DX009 (ip), vehicle: Klucel (hydroxypropylcellulose) (HPC)
  T/C: 101 % of control
dose: 16.0 mg/kg/injection, schedule: Q01DX009 (ip), vehicle: Klucel (hydroxypropylcellulose) (HPC)
  T/C: 94 % of control
dose: 32.0 mg/kg/injection, schedule: Q01DX009 (ip), vehicle: Klucel (hydroxypropylcellulose) (HPC)
  T/C: 101 % of control
